# Measurements as given in ChEMBL document CHEMBL1148604 (J Med Chem, 2006).
# Calls of active or inactive are those of the source. The rule behind the calls is not given here.
# Tests used:
# [1] = molecular target: T1, 3-oxoacyl-[acyl-carrier-protein] synthase 3 (Escherichia coli) (UniProt C3TDZ2); experiment: Inhibitory activity against FabH from Escherichia coli ANSI at 100 uM
# T1 sequence (whole entry): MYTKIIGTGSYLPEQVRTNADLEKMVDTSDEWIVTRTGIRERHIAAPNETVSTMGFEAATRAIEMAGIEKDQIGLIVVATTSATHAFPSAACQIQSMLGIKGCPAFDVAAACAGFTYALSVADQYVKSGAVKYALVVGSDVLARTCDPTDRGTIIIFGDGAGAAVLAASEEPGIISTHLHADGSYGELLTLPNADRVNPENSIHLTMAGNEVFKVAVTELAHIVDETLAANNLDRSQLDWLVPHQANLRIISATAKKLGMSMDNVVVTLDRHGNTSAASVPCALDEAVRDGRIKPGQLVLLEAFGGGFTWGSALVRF
# [2] = molecular target: T2, Mycobacterial beta-ketoacyl-[acyl-carrier-protein] synthase III (Mycobacterium tuberculosis) (UniProt P9WNG3); experiment: Inhibitory activity against FabH from Mycobacterium tuberculosis H37Rv at 100 uM
# T2 sequence (whole entry): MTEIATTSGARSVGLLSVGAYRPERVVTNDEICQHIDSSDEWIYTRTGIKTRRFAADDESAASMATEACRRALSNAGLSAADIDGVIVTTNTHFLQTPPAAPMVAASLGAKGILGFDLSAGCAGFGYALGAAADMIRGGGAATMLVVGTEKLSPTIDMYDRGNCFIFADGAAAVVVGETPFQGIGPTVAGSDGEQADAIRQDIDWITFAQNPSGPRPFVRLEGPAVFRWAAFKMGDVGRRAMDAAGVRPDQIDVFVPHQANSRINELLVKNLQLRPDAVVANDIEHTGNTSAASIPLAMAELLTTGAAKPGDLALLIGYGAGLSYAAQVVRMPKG
# [3] = molecular target: T3, 3-oxoacyl-[acyl-carrier-protein] synthase 1 (Mycobacterium tuberculosis) (UniProt P9WQD9); experiment: Inhibitory activity against KasA from Mycobacterium tuberculosis H37Rv at 100 uM
# T3 sequence (whole entry): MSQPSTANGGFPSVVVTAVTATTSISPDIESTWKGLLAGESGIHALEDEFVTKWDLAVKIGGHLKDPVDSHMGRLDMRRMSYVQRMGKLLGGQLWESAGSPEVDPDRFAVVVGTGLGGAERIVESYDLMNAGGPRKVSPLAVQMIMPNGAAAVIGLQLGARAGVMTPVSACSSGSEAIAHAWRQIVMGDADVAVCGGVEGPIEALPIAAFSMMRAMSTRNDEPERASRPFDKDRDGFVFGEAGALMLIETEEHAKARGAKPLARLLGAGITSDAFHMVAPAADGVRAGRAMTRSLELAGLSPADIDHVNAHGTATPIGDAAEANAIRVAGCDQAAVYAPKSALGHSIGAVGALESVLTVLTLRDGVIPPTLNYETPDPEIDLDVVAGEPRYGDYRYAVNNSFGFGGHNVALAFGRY
# Escherichia coli = experiment: Inhibitory activity against Escherichia coli ANSI; assay type: functional
# [4] = test system: Mycobacterium tuberculosis; experiment: Inhibitory activity against Mycobacterium tuberculosis H37Rv; assay type: functional
# [5] = molecular target: T4, 3-oxoacyl-[acyl-carrier-protein] synthase 3 (Escherichia coli, UniProt C3TDZ2); experiment: Inhibitory activity against FabH from Escherichia coli ANSI
# T4 sequence (C3TDZ2 whole entry): T1 sequence (whole entry)
# [6] = molecular target: T5, 3-oxoacyl-[acyl-carrier-protein] synthase 2 (Mycobacterium tuberculosis, UniProt P9WQD7); experiment: Inhibitory activity against KasB from Mycobacterium tuberculosis H37Rv
# T5 sequence (P9WQD7 whole entry): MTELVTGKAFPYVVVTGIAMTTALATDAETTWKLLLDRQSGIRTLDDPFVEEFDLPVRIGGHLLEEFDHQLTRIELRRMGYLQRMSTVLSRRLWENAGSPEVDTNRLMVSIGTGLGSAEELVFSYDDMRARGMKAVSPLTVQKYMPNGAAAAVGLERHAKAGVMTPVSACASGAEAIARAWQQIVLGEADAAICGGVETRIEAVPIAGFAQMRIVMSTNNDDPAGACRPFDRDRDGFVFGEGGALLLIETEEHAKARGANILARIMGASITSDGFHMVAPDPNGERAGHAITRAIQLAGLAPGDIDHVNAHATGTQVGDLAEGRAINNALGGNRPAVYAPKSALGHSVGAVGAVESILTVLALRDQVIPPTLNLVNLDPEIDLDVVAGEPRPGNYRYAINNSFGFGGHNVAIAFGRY
# [7] = molecular target: T6, 3-oxoacyl-[acyl-carrier-protein] synthase 2 (Mycobacterium tuberculosis) (UniProt P9WQD7); experiment: Inhibitory activity against KasB from Mycobacterium tuberculosis H37Rv at 100 uM
# T6 sequence (whole entry): T5 sequence (P9WQD7 whole entry)
# [8] = molecular target: T7, 3-oxoacyl-[acyl-carrier-protein] synthase 1 (Escherichia coli K-12) (UniProt P0A953); experiment: Inhibitory activity against FabB from Escherichia coli ANSI at 100 uM
# T7 sequence (whole entry): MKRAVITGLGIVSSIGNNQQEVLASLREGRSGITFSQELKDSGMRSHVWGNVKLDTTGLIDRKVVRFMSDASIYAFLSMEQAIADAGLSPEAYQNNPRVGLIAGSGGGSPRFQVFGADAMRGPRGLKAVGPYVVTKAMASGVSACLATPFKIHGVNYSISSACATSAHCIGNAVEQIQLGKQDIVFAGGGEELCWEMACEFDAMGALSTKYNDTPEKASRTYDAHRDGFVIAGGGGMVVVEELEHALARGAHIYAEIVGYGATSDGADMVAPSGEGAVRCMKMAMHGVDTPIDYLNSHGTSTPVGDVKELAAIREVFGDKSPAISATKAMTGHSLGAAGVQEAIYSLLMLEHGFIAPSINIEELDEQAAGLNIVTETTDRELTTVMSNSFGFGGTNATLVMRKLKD
# [9] = molecular target: T8, 3-oxoacyl-[acyl-carrier-protein] synthase 1 (Escherichia coli K-12, UniProt P0A953); experiment: Inhibitory activity against FabB from Escherichia coli ANSI
# T8 sequence (P0A953 whole entry): T7 sequence (whole entry)
# Fatty acid synthase [10] = molecular target: T9, Fatty acid synthase (Homo sapiens, UniProt P49327); experiment: Inhibitory activity against human FAS1
# Target sequence in this assay (P49327 whole entry): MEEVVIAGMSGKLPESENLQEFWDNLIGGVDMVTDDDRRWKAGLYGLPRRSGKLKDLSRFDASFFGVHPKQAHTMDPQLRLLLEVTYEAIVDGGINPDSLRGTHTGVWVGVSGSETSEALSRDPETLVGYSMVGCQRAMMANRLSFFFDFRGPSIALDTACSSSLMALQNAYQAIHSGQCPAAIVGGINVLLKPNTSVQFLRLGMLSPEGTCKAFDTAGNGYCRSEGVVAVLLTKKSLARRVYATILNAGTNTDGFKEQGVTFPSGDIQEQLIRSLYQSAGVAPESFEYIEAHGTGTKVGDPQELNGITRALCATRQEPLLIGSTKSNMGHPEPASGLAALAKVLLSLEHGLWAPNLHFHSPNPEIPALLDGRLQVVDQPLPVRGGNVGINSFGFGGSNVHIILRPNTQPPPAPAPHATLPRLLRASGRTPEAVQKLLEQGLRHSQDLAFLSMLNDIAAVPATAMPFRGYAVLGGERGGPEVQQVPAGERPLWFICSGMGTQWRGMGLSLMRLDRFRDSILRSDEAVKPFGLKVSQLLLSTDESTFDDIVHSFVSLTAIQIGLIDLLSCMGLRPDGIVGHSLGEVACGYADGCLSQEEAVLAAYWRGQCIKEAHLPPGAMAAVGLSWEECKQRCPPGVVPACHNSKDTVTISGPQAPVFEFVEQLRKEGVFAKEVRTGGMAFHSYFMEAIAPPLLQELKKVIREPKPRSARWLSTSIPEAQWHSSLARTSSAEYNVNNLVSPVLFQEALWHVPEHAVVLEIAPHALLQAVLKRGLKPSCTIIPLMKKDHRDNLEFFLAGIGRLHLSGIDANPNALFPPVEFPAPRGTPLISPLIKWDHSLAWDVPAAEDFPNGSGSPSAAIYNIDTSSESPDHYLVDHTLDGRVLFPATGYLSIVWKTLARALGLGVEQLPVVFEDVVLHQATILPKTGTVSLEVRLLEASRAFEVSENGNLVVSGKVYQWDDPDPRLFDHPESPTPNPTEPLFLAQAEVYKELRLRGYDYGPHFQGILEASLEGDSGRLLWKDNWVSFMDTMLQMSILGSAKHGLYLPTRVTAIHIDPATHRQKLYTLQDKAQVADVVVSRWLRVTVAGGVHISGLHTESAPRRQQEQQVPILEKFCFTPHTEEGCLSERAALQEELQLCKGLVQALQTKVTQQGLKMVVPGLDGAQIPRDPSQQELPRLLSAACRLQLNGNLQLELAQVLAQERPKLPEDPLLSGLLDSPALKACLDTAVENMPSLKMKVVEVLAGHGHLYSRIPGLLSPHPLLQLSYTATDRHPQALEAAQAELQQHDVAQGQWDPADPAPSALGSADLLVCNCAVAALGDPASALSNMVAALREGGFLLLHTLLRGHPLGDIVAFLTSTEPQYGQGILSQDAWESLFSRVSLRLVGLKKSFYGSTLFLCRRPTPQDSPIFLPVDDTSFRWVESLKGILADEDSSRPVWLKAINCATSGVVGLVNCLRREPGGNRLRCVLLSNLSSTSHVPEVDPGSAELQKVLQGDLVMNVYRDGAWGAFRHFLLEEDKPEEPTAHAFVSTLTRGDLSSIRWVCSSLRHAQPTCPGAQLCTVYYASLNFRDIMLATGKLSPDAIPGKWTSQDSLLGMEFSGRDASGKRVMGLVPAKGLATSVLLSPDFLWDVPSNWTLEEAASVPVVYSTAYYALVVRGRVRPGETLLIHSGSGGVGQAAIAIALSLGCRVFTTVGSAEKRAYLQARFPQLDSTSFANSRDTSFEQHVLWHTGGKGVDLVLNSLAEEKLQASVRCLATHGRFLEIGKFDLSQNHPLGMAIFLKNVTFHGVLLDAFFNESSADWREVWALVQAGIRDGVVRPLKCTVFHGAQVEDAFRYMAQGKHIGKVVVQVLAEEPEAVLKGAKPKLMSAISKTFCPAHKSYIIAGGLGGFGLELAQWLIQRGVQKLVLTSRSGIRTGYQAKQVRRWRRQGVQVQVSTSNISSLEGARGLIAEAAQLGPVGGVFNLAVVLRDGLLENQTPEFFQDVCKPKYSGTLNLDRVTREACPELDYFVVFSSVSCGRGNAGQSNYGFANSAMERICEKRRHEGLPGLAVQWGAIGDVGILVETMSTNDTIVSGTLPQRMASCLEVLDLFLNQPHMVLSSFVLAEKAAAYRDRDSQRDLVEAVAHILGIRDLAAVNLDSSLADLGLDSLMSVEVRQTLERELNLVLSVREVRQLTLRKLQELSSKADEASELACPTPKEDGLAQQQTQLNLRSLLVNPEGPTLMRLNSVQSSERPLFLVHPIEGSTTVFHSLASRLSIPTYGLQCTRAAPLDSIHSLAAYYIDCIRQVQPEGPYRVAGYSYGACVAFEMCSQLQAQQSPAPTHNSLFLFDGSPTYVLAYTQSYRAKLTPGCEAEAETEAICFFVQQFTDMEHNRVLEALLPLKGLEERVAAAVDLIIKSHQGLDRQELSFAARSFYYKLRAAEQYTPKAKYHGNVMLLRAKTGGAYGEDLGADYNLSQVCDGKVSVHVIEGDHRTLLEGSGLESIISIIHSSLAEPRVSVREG
# Fatty acid synthase [11] = molecular target: T9, Fatty acid synthase; experiment: Inhibitory activity against human FAS1 at 100 uM
# Target sequence in this assay (P49327 whole entry, looked up): as the sequence (P49327 whole entry) above
# wild-type apo-KasA = wild-type apo-KasA (Mycobacterium tuberculosis, UniProt P9WQD9); experiment: Inhibitory activity against KasA from Mycobacterium tuberculosis H37Rv
# [12] = molecular target: T10, Mycobacterial beta-ketoacyl-[acyl-carrier-protein] synthase III (Mycobacterium tuberculosis, UniProt P9WNG3); experiment: Inhibitory activity against FabH from Mycobacterium tuberculosis H37Rv
# T10 sequence (P9WNG3 whole entry): T2 sequence (whole entry)
smiles,measurement,setting,value
CC(C)=CCC/C(C)=C/CC/C(C)=C/CC1(C)SC(O)=C(C)C1=O (stereo unspecified),inhibition,[1],< 30%
same,inhibition,[2],inactive
same,inhibition,[3],inactive
same,MIC,Escherichia coli,200 µM
same,MIC,[4],> 1000 µM
same,IC50,[5],> 100 µM
same,IC50,[6],> 100 µM
same,inhibition,[7],< 30%
same,inhibition,[8],inactive
C=C/C(C)=C/C1(C)SC(O)=C(C)C1=O (racemic) [RAC-THIOLACTOMYCIN],MIC,Escherichia coli,12 µM
same,MIC,[4],125 µM
same,IC50,[9],20 µM
same,IC50,Fatty acid synthase [10],143 µM
CCC(C)C[C@@]1(C)SC(O)=C(C)C1=O (stereo partly specified),inhibition,[3],inactive
same,inhibition,Fatty acid synthase [11],inactive
same,MIC,Escherichia coli,> 200 µM
same,MIC,[4],> 1000 µM
same,inhibition,[7],inactive
same,inhibition,[8],inactive
CC[C@H](C)CC1(C)SC(O)=C(C)C1=O (stereo partly specified),inhibition,[1],< 30%
same,inhibition,[2],inactive
same,inhibition,[3],inactive
same,MIC,Escherichia coli,> 1000 µM
same,MIC,[4],500 µM
same,IC50,[5],> 100 µM
same,inhibition,[7],inactive
same,inhibition,[8],inactive
CC(C)=CCC1(C)SC(O)=C(C)C1=O (stereo unspecified),inhibition,[1],inactive
same,inhibition,[2],inactive
same,inhibition,[3],< 30%
same,MIC,Escherichia coli,> 1000 µM
same,MIC,[4],> 1000 µM
same,IC50,wild-type apo-KasA,> 100 µM
same,inhibition,[7],inactive
same,inhibition,[8],inactive
CC1=C(O)C(C)(Cc2ccc(Cl)c(Cl)c2)SC1=O (stereo unspecified),inhibition,[1],< 30%
same,inhibition,[2],< 30%
same,inhibition,[3],inactive
same,MIC,Escherichia coli,> 1000 µM
same,MIC,[4],500 µM
same,IC50,[5],> 100 µM
same,IC50,[12],> 100 µM
same,inhibition,[7],inactive
same,inhibition,[8],inactive
C=CC(C)C[C@@]1(C)SC(O)=C(C)C1=O (stereo partly specified),inhibition,[3],inactive
same,inhibition,Fatty acid synthase [11],inactive
same,MIC,Escherichia coli,> 200 µM
same,MIC,[4],> 1000 µM
same,inhibition,[7],inactive
same,inhibition,[8],inactive
C=CCCCC1(C)SC(=O)C(C)=C1O (stereo unspecified),inhibition,[1],inactive
same,inhibition,[2],inactive
same,inhibition,[3],< 30%
same,MIC,Escherichia coli,> 1000 µM
same,MIC,[4],> 1000 µM
same,IC50,wild-type apo-KasA,> 100 µM
same,inhibition,[7],inactive
same,inhibition,[8],inactive
CCCCCCCCC1(C)SC(O)=C(C)C1=O (stereo unspecified),inhibition,[1],< 30%
same,inhibition,[2],< 30%
same,inhibition,[3],inactive
same,MIC,Escherichia coli,200 µM
same,MIC,[4],> 1000 µM
same,IC50,[5],> 100 µM
same,IC50,[12],> 100 µM
same,inhibition,[7],inactive
same,inhibition,[8],inactive
C=C/C=C/C1(C)SC(=O)C(C)=C1O (stereo unspecified),inhibition,Fatty acid synthase [11],inactive
same,MIC,Escherichia coli,200 µM
same,MIC,[4],1000 µM
same,IC50,[9],500 µM
same,IC50,[6],400 µM
same,IC50,wild-type apo-KasA,25 µM
CC1=C(O)C(C)(CC2CC2)SC1=O (stereo unspecified),inhibition,[1],< 30%
same,inhibition,[2],inactive
same,inhibition,[3],inactive
same,MIC,Escherichia coli,> 1000 µM
same,MIC,[4],> 1000 µM
same,IC50,[5],> 100 µM
same,inhibition,[7],inactive
same,inhibition,[8],inactive
CC/C(C)=C/[C@@]1(C)SC(O)=C(C)C1=O,inhibition,[3],inactive
same,inhibition,Fatty acid synthase [11],inactive
same,MIC,Escherichia coli,> 200 µM
same,MIC,[4],> 1000 µM
same,inhibition,[7],inactive
same,inhibition,[8],inactive
C/C=C/C(C)=C/[C@@]1(C)SC(O)=C(C)C1=O,inhibition,Fatty acid synthase [11],inactive
same,MIC,Escherichia coli,200 µM
same,MIC,[4],1000 µM
same,IC50,[9],500 µM
same,IC50,[6],400 µM
same,IC50,wild-type apo-KasA,50 µM
C=CCCCCC1(C)SC(=O)C(C)=C1O (stereo unspecified),inhibition,[1],inactive
same,inhibition,[2],inactive
same,inhibition,[3],< 30%
same,MIC,Escherichia coli,> 1000 µM
same,MIC,[4],1000 µM
same,IC50,wild-type apo-KasA,> 100 µM
same,inhibition,[7],inactive
same,inhibition,[8],inactive
